Key:
[1] = test system: K562; test: Antiproliferative activity against human K562 cells assessed as inhibition of cell proliferation measured after 72 hrs by MTT assay; type: functional, cell-based; details: K562, 72 h
[2] = test system: SK-OV-3; test: Antiproliferative activity against human SK-OV-3 cells assessed as inhibition of cell proliferation measured after 72 hrs by MTT assay; type: functional, cell-based; details: SK-OV-3, 72 h
[3] = test system: Ramos; test: Antiproliferative activity against human Ramos cells assessed as inhibition of cell proliferation measured after 72 hrs by MTT assay; type: functional, cell-based
[4] = Half life in human liver microsomes; type: ADME, Microsome
[5] = Intrinsic clearance in human liver microsomes; type: ADME, Microsome
[6] = molecular target: Tubulin; test: Binding affinity to tubulin (unknown origin) assessed as dissociation constant by tryptophan based binding assay; type: protein-complex assay, Homo sapiens
[7] = AUC (0 to t) in Sprague-Dawley rat at 5 mg/kg, po measured up to 24 hrs by LC/MS/MS analysis; type: ADME, organism-based; design: route oral, dose 5 mg/kg, time <=24; details: in vivo
[8] = Half life in Sprague-Dawley rat at 5 mg/kg, po measured up to 24 hrs by LC/MS/MS analysis; type: ADME, organism-based; details: in vivo
[9] = Tmax in Sprague-Dawley rat at 5 mg/kg, po measured up to 24 hrs by LC/MS/MS analysis; type: ADME, organism-based; details: in vivo
[10] = Cmax in Sprague-Dawley rat at 5 mg/kg, po measured up to 24 hrs by LC/MS/MS analysis; type: ADME, organism-based; design: route oral, dose 5 mg/kg, time <=24; details: in vivo
[11] = Clearance in Sprague-Dawley rat at 5 mg/kg, po measured up to 24 hrs by LC/MS/MS analysis; type: ADME, organism-based; details: in vivo
[12] = Oral bioavailability in Sprague-Dawley rat at 5 mg/kg measured up to 24 hrs by LC/MS/MS analysis; type: ADME, organism-based; details: in vivo
[13] = Antitumor activity against mouse C26 cells xenografted in BALB/c mouse assessed as tumor growth inhibition at 10 mg/kg, po measured every 2 days for 10 days by vernier caliper analysis relative to control; type: functional; details: 240 h, time 10 day, read-out: TGI
[14] = molecular target: Proto-oncogene tyrosine-protein kinase Src (Homo sapiens) (UniProt P12931); test: Inhibition of Src kinase phosphorylation at Tyr416/419 residue in human SK-OV-3 cells incubated for 24 hrs by Western blot analysis; type: cell-based
Sequence of Proto-oncogene tyrosine-protein kinase Src (Homo sapiens) (P12931 2-536 limits assumed): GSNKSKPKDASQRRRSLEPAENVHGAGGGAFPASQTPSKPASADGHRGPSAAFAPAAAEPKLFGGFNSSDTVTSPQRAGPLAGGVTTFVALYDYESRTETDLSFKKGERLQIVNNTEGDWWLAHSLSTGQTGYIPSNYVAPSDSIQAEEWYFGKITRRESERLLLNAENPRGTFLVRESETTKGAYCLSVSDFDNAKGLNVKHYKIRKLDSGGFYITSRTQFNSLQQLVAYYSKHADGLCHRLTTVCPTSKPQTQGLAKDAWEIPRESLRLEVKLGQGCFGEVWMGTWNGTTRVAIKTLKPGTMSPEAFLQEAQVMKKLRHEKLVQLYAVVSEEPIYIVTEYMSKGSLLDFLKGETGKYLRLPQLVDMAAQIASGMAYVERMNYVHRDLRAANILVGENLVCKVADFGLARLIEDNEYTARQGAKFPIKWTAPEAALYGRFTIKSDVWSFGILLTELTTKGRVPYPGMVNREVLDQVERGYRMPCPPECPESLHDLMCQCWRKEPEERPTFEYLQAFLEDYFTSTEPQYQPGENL

[15] = molecular target: Focal adhesion kinase 1 (Homo sapiens) (UniProt Q05397); test: Inhibition of FAK phosphorylation at […] residue in human SK-OV-3 cells incubated for 24 hrs by Western blot analysis; type: cell-based
Sequence of Focal adhesion kinase 1 (Homo sapiens) (Q05397 2-1052 limits assumed): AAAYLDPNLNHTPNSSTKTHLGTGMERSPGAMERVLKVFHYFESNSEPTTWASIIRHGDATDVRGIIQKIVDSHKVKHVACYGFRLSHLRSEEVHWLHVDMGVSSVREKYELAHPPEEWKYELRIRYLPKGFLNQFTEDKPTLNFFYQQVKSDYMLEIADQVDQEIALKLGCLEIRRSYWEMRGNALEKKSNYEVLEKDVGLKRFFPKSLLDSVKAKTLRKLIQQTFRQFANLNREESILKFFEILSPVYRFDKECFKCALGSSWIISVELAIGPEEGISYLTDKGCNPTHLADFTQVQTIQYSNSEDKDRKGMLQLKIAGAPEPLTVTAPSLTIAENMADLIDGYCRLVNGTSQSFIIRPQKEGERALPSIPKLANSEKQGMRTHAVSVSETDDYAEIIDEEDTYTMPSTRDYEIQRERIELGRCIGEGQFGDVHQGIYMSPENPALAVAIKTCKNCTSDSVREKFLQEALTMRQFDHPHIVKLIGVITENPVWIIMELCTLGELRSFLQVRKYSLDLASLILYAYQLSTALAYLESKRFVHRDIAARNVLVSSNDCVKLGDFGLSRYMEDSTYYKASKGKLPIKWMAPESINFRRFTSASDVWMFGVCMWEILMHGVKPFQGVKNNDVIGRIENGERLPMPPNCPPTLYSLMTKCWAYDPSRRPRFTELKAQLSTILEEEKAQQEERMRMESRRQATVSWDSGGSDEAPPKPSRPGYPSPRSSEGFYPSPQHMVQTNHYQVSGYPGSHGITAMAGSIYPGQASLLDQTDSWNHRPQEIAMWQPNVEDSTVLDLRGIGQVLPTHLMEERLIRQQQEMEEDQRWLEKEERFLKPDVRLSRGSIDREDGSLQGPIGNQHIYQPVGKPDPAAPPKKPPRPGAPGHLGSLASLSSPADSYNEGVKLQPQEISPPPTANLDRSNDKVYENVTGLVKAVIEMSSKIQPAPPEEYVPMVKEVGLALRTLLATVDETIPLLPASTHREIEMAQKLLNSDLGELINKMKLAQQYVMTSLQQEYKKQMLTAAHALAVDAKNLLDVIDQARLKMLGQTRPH

[16] = Toxicity in C57 mouse at 40 mg/kg, po administered twice daily; type: organism-based; details: in vivo
[17] = Toxicity in BALB/c mouse xenografted with mouse C26 cells assessed as death at 10 mg/kg, po measured every 2 days for 10 days; type: organism-based; details: in vivo, 240 h, time 10 day
[18] = Toxicity in C57 mouse at 10 mg/kg, po administered twice daily; type: organism-based; details: in vivo
[19] = Antitumor activity against human SK-OV-3 cells xenografted in nude mouse assessed as tumor growth inhibition at 10 mg/kg, po measured every 3 days for 1 month by vernier caliper analysis relative to control; type: functional; details: SK-OV-3, po, 730 h, time 1 months, read-out: TGI
[20] = Toxicity in mouse xenografted with human SK-OV-3 cells assessed as effect on body weight at 10 mg/kg, po administered for 30 days; type: organism-based; details: in vivo, 720 h, time 30 day
[21] = test system: SK-OV-3; test: Induction of cell cycle arrest in human SK-OV-3 cells assessed as accumulation of cells at G0/G1 phase at 10 nM incubated for 24 hrs by PI staining based flow cytometry analysis (reference value: 49.60 %); type: functional
[22] = test system: SK-OV-3; test: Induction of cell cycle arrest in human SK-OV-3 cells assessed as accumulation of cells at G2/M phase at 10 nM incubated for 24 hrs by PI staining based flow cytometry analysis (reference value: 28.94%); type: functional
[23] = test system: SK-OV-3; test: Induction of cell cycle arrest in human SK-OV-3 cells assessed as accumulation of cells at S phase at 10 nM incubated for 24 hrs by PI staining based flow cytometry analysis (reference value: 21.4 %); type: functional
[24] = test system: SK-OV-3; test: Induction of cell cycle arrest in human SK-OV-3 cells assessed as accumulation of cells at G0/G1 phase at 20 nM incubated for 24 hrs by PI staining based flow cytometry analysis (reference value: 49.60 %); type: functional
[25] = test system: SK-OV-3; test: Induction of cell cycle arrest in human SK-OV-3 cells assessed as accumulation of cells at G2/M phase at 20 nM incubated for 24 hrs by PI staining based flow cytometry analysis (reference value: 28.94%); type: functional
[26] = test system: SK-OV-3; test: Induction of cell cycle arrest in human SK-OV-3 cells assessed as accumulation of cells at S phase at 20 nM incubated for 24 hrs by PI staining based flow cytometry analysis (reference value: 21.4 %); type: functional
[27] = test system: SK-OV-3; test: Induction of cell cycle arrest in human SK-OV-3 cells assessed as accumulation of cells at G0/G1 phase at 100 nM incubated for 24 hrs by PI staining based flow cytometry analysis (reference value: 49.60 %); type: functional
[28] = test system: SK-OV-3; test: Induction of cell cycle arrest in human SK-OV-3 cells assessed as accumulation of cells at G2/M phase at 100 nM incubated for 24 hrs by PI staining based flow cytometry analysis (reference value: 28.94%); type: functional
[29] = test system: SK-OV-3; test: Induction of cell cycle arrest in human SK-OV-3 cells assessed as accumulation of cells at S phase at 100 nM incubated for 24 hrs by PI staining based flow cytometry analysis (reference value: 21.4 %); type: functional

Row | Compound | IC50 [1] | IC50 [2] | IC50 [3] | half-life [4] | CLH [5] | Kd [6] | AUC(0-t) at 24 h [7] | half-life [8] | Tmax [9] | Cmax [10] | CL/F [11] | bioavailability [12] | inhibition in vivo at 10 mg/kg [13] | inhibition [14] | inhibition [15] | other results
1 | O=C(Cc1ccc(-c2ccc(OCCN3CCN(C(=O)C4CC4)CC3)cc2)cn1)NCc1ccccc1 | 2.5 nM | 1.1 nM | 1.3 nM | 38.5 min | 36 mL·min/g | 290 nM | 1620 ng·h/mL | 158 min | 49.8 min | 593 ng/mL | 55.7 mL/min/kg | 52.2% | 73% | Dose-Dependent Effect | Dose-Dependent Effect | Activity [16]: Non-Toxic; Activity [17]: Toxic
2 | O=C(Cc1ccc(-c2ccc(OCCN3CCN(C(=O)[C@@H]4C[C@@H]4F)CC3)cc2)cn1)NCc1ccccc1 | 1.4 nM | 0.6 nM | 1.6 nM | 52.1 min | 26.6 mL·min/g | 300 nM | 4180 ng·h/mL | 305 min | 42 min | 742 ng/mL | 25.8 mL/min/kg | 79.9% |  | Dose-Dependent Effect | Dose-Dependent Effect | Activity [18]: Toxic
3 | O=C(Cc1ccc(-c2ccc(OCCN3CCOCC3)cc2)cn1)NCc1ccccc1 [TIRBANIBULIN] | 18.2 nM | 6.8 nM | 15.7 nM | 44.1 min | 31.4 mL·min/g | 1110 nM | 840 ng·h/mL | 740 min | 15 min | 431 ng/mL | 88.5 mL/min/kg | 34.9% | 51% |  |  | inhibition in vivo at 10 mg/kg [19]: 42%; Activity [20]: Non-Toxic; Activity [21]: 46.66%; Activity [22]: 34.01%; Activity [23]: 19.33%; Activity [24]: 40.07%; Activity [25]: 40.35%; Activity [26]: 19.58%; Activity [27]: 15.39%; Activity [28]: 64.41%; Activity [29]: 20.2%

Reference: ChEMBL document CHEMBL5033996, “Design, Synthesis, and Bioactivity Evaluation of Dual-Target Inhibitors of Tubulin and Src Kinase Guided by Crystal Structure” (J Med Chem, 2021)
